Experimental data reported in PubChem BioAssay AID1963841 (Molecular Pharmacology Branch, DTP, NCI, 2024).
Several values for one entry are separate records, joined by “and”; a condition that tells them apart may be missing. Equal values may be shown once.

Tested on: 439559-082-T-J2-PDC spheroid viability
Assay: Anticancer human tumor 439559-082-T-J2-PDC patient-derived colon adenocarcinoma cell line growth inhibition [POLQ]
Settings: spheroids with HUVEC and MSC; for viability, T/C: stronger effect = lower value
Procedure: Multicellular complex tumor spheroid response to Polymerase (POL) inhibitors (novobiocin, ART-558, RP6685) in combination with a variety of drugs and investigational agents in selected tumor cell lines
The POL inhibitors (novobiocin, ART-558, and RP6685) were evaluated both individually and in combination with standard of care and investigational anticancer small molecules within a complex spheroid model of solid tumors. . Complex spheroids include a stromal component modeled by human endothelial cells (HUVEC) and fibroblasts modeled by human mesenchymal stem cells (MSCs). The concentration ranges selected for each drug and investigational agent were based upon clinically achievable concentrations if the clinical Cmax of the agent was known.
Compounds. The drugs and investigational agents: novobiocin (NSC847541), ART-558 (NSC835418), RP-6685 (NSC848927), peposertib (NSC802822), ceralasertib (NSC780249), elimusertib (NSC800525), camonsertib (NSC841442), AZD-1390 (NSC803789), olaparib (NSC753686), talazoparib (NSC767125), rucaparib (NSC756644), sotorasib (NSC818433), MRTX-1133 (NSC836407), SN-38 (NSC673596), topotecan (NSC609699), epotoside (NSC141540), doxorubicin (NSC123127), gemcitabine (NSC613327), 5-fluorouracil (NSC19893), paclitaxel (NSC125973), vemurafenib (NSC761431), MSA-2 (NSC828583), SN-011 (NSC837082), adavosertib (NSC754352), prexasertib (NSC758257), carboplatin (NSC241240) and oxaliplatin (NSC266046), were obtained from the National Cancer Institute (NCI) Developmental Therapeutics Program Chemical Repository (21). The FDA-approved anticancer drug set is available from the Developmental Therapeutics Program at https://dtp.cancer.gov/organization/dscb/obtaining/. […] The stock solutions were prepared in dimethyl sulfoxide (DMSO, Sigma-Aldrich, St. Louis, MO, cat. D2650), except for the platinum compounds which were prepared in saline (Quality Biological, Gaithersburg, MD, cat. 114-055-101), at 800-fold the tested concentration and stored at -70 degrees C prior to their use. All drugs and investigational agents were tested over a range starting from a high concentration at or near the clinical Cmax and decreasing in half-log increments. If the clinical Cmax for an agent had not been determined, the highest concentration tested was 10 microM, except for SN-38, which was tested at a high concentration of 1 microM.
Cell Culture. All cells were maintained in an incubator at 37 degrees C and 5% CO2 with 95% humidity. The PDC lines were cultured according to standard operating procedures established by the NCI PDMR (https://pdmr.cancer.gov). Table 3 of the manuscript, lists the cell lines along with the number of the three cell types plated to form the mct-spheroids and media for tumor cell growth. After thawing, all PDC lines, except 997537-175-T-J1-PDC and 415267-285-R-J2-PDC, were cultured in Matrigel-coated flasks prepared with a working solution of 1X Ham's F-12 nutrient mix, without supplementation (Thermo Fisher Scientific, cat. 11765054), 100 U/mL penicillin-streptomycin (Thermo Fisher Scientific, cat. 15140122), and 2.5% Matrigel (Corning Inc., Corning, NY, cat. 354248) for the first three passages. The two PDC lines 997537-175-T-J1-PDC and 415267-285-R-J2-PDC were cultured on uncoated flasks. The 857933-349-R-J2-PDC line was cultured in 6C/Colon 1B media containing advanced DMEM/F-12 (Thermo Fisher Scientific, cat. 12634028), 10 mM HEPES (Thermo Fisher Scientific, cat. 15630080), 1X GlutaMAX supplement (Thermo Fisher Scientific, cat. 35050061), 0.1 mg/mL primocin (InvivoGen, San Diego, CA, cat. ant-pm-2), 10% defined fetal bovine serum, heat inactivated (HyClone Laboratories Inc., Logan, UT, cat. SH30070.03HI), 50% L-WRN conditioned media (ATCC, cat. CRL-3276), 1.25 mM N-Acetyl-L-cysteine (Sigma-Aldrich, cat. A9165), 10 mM nicotinamide (Sigma-Aldrich, cat. N0636), 1X B-27 supplement (Thermo Fisher Scientific, cat. 17504044), 1X N-2 supplement (Thermo Fisher Scientific, cat. […]
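Further: spheroids exposed to compounds for seven days before readout.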
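Wherever viability, T/C is given: 100% = DMSO vehicle control viability.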

`CC1COCCN1c1cc(-c2ccnn2C)c2ccnc(-c3ccn[nH]3)c2n1` (stereo not drawn) + COC1C(OC(N)=O)C(O)C(Oc2ccc3c(O)c(NC(=O)c4ccc(O)c(CC=C(C)C)c4)c(=O)oc3c2C)OC1(C)C gave an IC50 (curve of first compound, second compound 0.0316 µM) of 257 nM, an IC50 (curve of first compound, second compound 0.1 µM) of 299 nM and an IC50 (curve of first compound, second compound 0.316 µM) of 353 nM. For the same compound, the IC50 (curve of first compound, second compound 1 µM) was 274 nM, the IC50 (curve of first compound, second compound 3.16 µM) was 276 nM and the IC50 (curve of first compound, second compound 10 µM) was 298 nM. The viability, T/C (second compound 0.0316 µM, first compound 0.0316 µM) was 85.6%, the viability, T/C (second compound 0.0316 µM, first compound 0.1 µM) was 66.5% and the viability, T/C (second compound 0.0316 µM, first compound 0.316 µM) was 44.7%. For the same compound, the viability, T/C (second compound 0.0316 µM, first compound 1 µM) was 42%, the viability, T/C (second compound 0.0316 µM, first compound 3.16 µM) was 23.3% and the viability, T/C (second compound 0.0316 µM, first compound 10 µM) was 37%. The viability, T/C (second compound 0.1 µM, first compound 0.0316 µM) was 82.8%, the viability, T/C (second compound 0.1 µM, first compound 0.1 µM) was 75.4% and the viability, T/C (second compound 0.1 µM, first compound 0.316 µM) was 47.4%. The viability, T/C (second compound 0.1 µM, first compound 1 µM) was 41.3%, the viability, T/C (second compound 0.1 µM, first compound 3.16 µM) was 27% and the viability, T/C (second compound 0.1 µM, first compound 10 µM) was 38.9%. For the same compound, the viability, T/C (second compound 0.316 µM, first compound 0.0316 µM) was 92.5%, the viability, T/C (second compound 0.316 µM, first compound 0.1 µM) was 77.4% and the viability, T/C (second compound 0.316 µM, first compound 0.316 µM) was 49.5%. For the same compound, the viability, T/C (second compound 0.316 µM, first compound 1 µM) was 43.1%, the viability, T/C (second compound 0.316 µM, first compound 3.16 µM) was 25.2% and the viability, T/C (second compound 0.316 µM, first compound 10 µM) was 39.4%. For the same compound, the viability, T/C (second compound 1 µM, first compound 0.0316 µM) was 92.1%, the viability, T/C (second compound 1 µM, first compound 0.1 µM) was 75.2% and the viability, T/C (second compound 1 µM, first compound 0.316 µM) was 44.9%. For the same compound, the viability, T/C (second compound 1 µM, first compound 1 µM) was 41.9%, the viability, T/C (second compound 1 µM, first compound 3.16 µM) was 24.2% and the viability, T/C (second compound 1 µM, first compound 10 µM) was 39.7%. It also gave a viability, T/C (second compound 3.16 µM, first compound 0.0316 µM) of 94.3%, a viability, T/C (second compound 3.16 µM, first compound 0.1 µM) of 72.1% and a viability, T/C (second compound 3.16 µM, first compound 0.316 µM) of 45.1%. For the same compound, the viability, T/C (second compound 3.16 µM, first compound 1 µM) was 42.4%, the viability, T/C (second compound 3.16 µM, first compound 3.16 µM) was 25.2% and the viability, T/C (second compound 3.16 µM, first compound 10 µM) was 37.7%. It also gave a viability, T/C (second compound 10 µM, first compound 0.0316 µM) of 88%, a viability, T/C (second compound 10 µM, first compound 0.1 µM) of 78.5% and a viability, T/C (second compound 10 µM, first compound 0.316 µM) of 46.4%. The viability, T/C (second compound 10 µM, first compound 1 µM) was 42.9%, the viability, T/C (second compound 10 µM, first compound 3.16 µM) was 25.4% and the viability, T/C (second compound 10 µM, first compound 10 µM) was 37.2%.
`CCCS(=O)(=O)Nc1ccc(F)c(C(=O)c2c[nH]c3ncc(-c4ccc(Cl)cc4)cc23)c1F` was tested, and the viability, T/C (compound 0.0316 µM) was 97.4% and 77.9% and 99.4%, the viability, T/C (compound 0.316 µM) was 102% and 105% and 90% and the viability, T/C (compound 1 µM) was 103% and 87.8% and 100%. For the same compound, the IC50 (curve of compound) was > 10000 nM and 7740 nM.
In the case of `CNCc1ccc(-c2[nH]c3cc(F)cc4c3c2CCNC4=O)cc1`, the viability, T/C (compound 0.0316 µM) is reported as 95.3% and 101% and 103%, the viability, T/C (compound 0.1 µM) is reported as 100% and 103% and 95.7% and the viability, T/C (compound 0.316 µM) is reported as 102% and 96.3% and 92.9%. The viability, T/C (compound 1 µM) was 98.9% and 111% and 95.9%, the viability, T/C (compound 3.16 µM) was 108% and 124% and 107% and the viability, T/C (compound 10 µM) was 94.3% and 101% and 108%. It also gave an IC50 (curve of compound) of over 10000 nM.
